Common to all, as to format: cell-based
In data set [1] the test system is palmitate-oleate induced steatotic HepG2 cells. Description: Reduction of Oil Red O stain in palmitate-oleate induced steatotic HepG2 cells. The note with it: Homo sapiens, PO-BSA 1 mM, 24 h, test materials 12.5-50 μM. The method, then: (§1) Induction of steatosis was done in accordance with the protocol of Hetherington and coworkers, Cell Physiol Biochem. 39:1648-62 (2016), with slight modification. HepG2 cells were loaded in 24-well cell culture plates at a density of 4×10^4 cells/well and kept overnight. On the next day, the media were replaced with fresh media containing PO-BSA at 1 mM concentration, with or without test materials (12.5-50 μM) dissolved in DMSO. The cells supplemented with media containing only BSA (instead of PO-BSA) and treated with DMSO (FIG. 2A) served as the normal control. The cells supplemented with media containing PO-BSA and treated with DMSO (FIG. 2B) served as negative control. Fenofibrate (12.5-50 μM) (FIG. 2C) was used as the positive control. After 24 h of treatment, the cells were taken for the analyses.
After treatment, the amount of lipids accumulated into the cells was measured using ORO staining. Briefly, 24 h after treatment, the spent media was removed and the cells were fixed by incubating them with 10% formalin in PBS for 1 h at room temperature. Each well was washed with 60% aqueous isopropanol and was allowed to dry. […] Cell morphology was assessed and photographed (400×) using an inverted microscope. The ORO stain was eluted with 100% isopropanol and measured at 500 nm. […] The results were expressed as the percentage of absorbance of the sample to the absorbance of the control blank.

Another data set relates to HepG2 cells. Put plainly: MTT toxicity assay. The note with it: 24 h; for GI50: Homo sapiens, test materials 100-500 μM, linear regression. The method, then:
The cytotoxic effect was analyzed by using the MTT assay as described by Mosmann, J. Immunol Methods. 65:55-63 (1983), with minor modification. HepG2 cells were seeded at 5×10^3 cells/well into a 96-well plate and incubated for 24 h. Spent media was then replaced with fresh media containing test materials (100-500 μM) dissolved in DMSO. Vehicle control cells were treated only with DMSO. The plates were incubated in a CO2 incubator for 24 h. The spent media was then replaced with sterile MTT solution (5 mg/mL in PBS at pH—7.4; 100 μL/well) and incubated for another 3 h. The unreacted MTT dye was removed, and the formazan crystals were dissolved with DMSO (200 μL/well) and kept in dark for 30 min. The resulting purple color was quantified by measuring absorbance at 570 nm. The assays were performed thrice and the results were expressed in percentage in comparison to vehicle-treated cells. The following formula was used for calculation.
[formula] GI50 values were calculated using linear regression analysis.
A general note: Tetrazolium assays rely on reduction of a dye to a coloured formazan, in cell work by metabolically active cells.

Data set [2] has as its system palmitate-oleate induced steatotic HepG2 cells. Put plainly: Lipoperoxide formation (MDA/TBARS) in palmitate-oleate induced HepG2 cells. The note with it: 50 μM, 24 h. The method, then: as §1
(§2) After treatment, the cells were harvested and lysed using 1×PBS under sonication at 3× for five second intervals at 40V setting over ice. The cell lysates were taken and estimated for TG and protein using commercial spectrophotometric kits. TG levels were normalized to the protein content, and results were expressed as mg TG/g protein. The MDA levels in the cell lysate were estimated using a commercial spectrophotometric kit. The levels of ALT were measured in the spent media, and cell lysate and percent ALT leakage was calculated using the following formula: […]

Data set [3] shares this test system. Put plainly: ALT leakage of palmitate-oleate induced HepG2 cells. The note with it: 24 h. The protocol: as §1, §2
The test system is the same in data set [4]. Put plainly: Triglyceride accumulation in palmitate-oleate induced HepG2 cells. The note with it: 50 μM, 24 h. The protocol: as §1, §2

As a reminder, the EC50 is the concentration that produces a half-maximal response. Lower therefore signals an effect from little substance. The term GI50 denotes the concentration at which growth is held to half of that of the control. Low values mean greater sensitivity of the cells, high ones lower sensitivity of the cells.

For `C=C1CC[C@@H]2[C@](C)(CO)[C@H](O)CC[C@@]2(C)[C@@H]1C/C=C1/C(=O)OC[C@H]1O` [AN, Andrographolide], the EC50 in data set [1] was found to be 43.3 µM. Further, in the data set with HepG2 cells, the GI50 worked out at 254 µM.
For `CCC(=O)OCC1(C)[C@H](O)CC[C@@]2(C)C3C[C@@H](C4=CCOC4=O)O[C@]3(C)CC[C@H]12` (some centres unmarked) [IAN-19P, isoandrographolide-19-propionate], the lipoperoxide formation result in data set [2] is given as “significantly lowered”. Moreover, a half-maximal response in data set [1] (EC50) required 8.92 µM. In data set [3], the ALT leakage result was “lowered ALT leakage”. In the data set with HepG2 cells, the “toxicity compared with AN (MTT assay)” value is “comparatively lower toxicity than AN” and growth was halved (GI50) at 27000 µM. The triglyceride level result in data set [4] is reported as “come to normal”.

The record behind these values is patent publication US10064841B1, “Isoandrographolide-19-propionate for treatment of non-alcoholic fatty liver disease (NAFLD)” (KING SAUD UNIVERSITY, priority 2018, dated 2018).
